The target of experiment [1] is GDP-bound KRAS wild-type protein (Homo sapiens, UniProt P01116). Kind of experiment: Binding to KRAS by surface plasmon resonance (SPR), dissociation constant KD. The note with it: Single Cycle Kinetics, 1:1 binding model. An outline of the steps:
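Affinity is measured by surface plasmon resonance at 30°C against captured, GDP-loaded RAS carrying a biotinylated Avi tag. Compounds are titrated by single-cycle kinetics, and KD comes from a 1:1 fit.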
(Surface plasmon resonance follows binding to a sensor surface in real time, without labels.)

The target of experiment [2] is GDP-bound NRAS wild-type protein (Homo sapiens, UniProt P01111). Kind of experiment: Binding to NRAS by surface plasmon resonance (SPR), KD and KD ratio to KRAS. The note with it: ratio of the KD value with respect to GDP-bound NRAS wild-type protein to the KD value with respect to KRAS. In a few lines: (§1)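 SPR, 30°C: Avi-biotin RAS·GDP captured via Biotin CAPture (~100–300 RU); running buffer HBS pH 7.4, 1 mM DTT, 10 mM MgCl2, 0.01% Tween 20, 10 µM GDP, 4% DMSO. Single-cycle kinetics, 100 µL/min, 75 s injections; 1:1 model → KD.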
GDP-bound NRAS wild-type protein, sequence (P01111 whole entry): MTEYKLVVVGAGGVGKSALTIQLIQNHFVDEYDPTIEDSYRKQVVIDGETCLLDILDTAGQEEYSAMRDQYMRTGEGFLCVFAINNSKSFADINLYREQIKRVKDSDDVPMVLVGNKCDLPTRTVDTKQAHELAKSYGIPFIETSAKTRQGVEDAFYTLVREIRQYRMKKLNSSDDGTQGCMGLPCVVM

Experiment [3] has as its target HRAS wild-type protein (Homo sapiens, UniProt P01112). The experiment in a line: Binding to HRAS by surface plasmon resonance (SPR), KD and KD ratio to KRAS. The settings on record: ratio of the KD value with respect to HRAS wild-type protein to the KD value with respect to KRAS. An outline of the steps: as §1
The subject of experiment [4] is human lung cancer strain NCI-H441. The class given is cell-based. In a few lines: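 Proliferation was scored by […] measured after the reagent was added to cultures kept at 37°C in 5% carbon dioxide.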

SMILES strings stand for the structures. Where a SMILES comes first, the peptide text is derived from it. Bridges are numbered along the chain shown (N, C = ends). [ ]: non-standard residue; d: D form. The star is where a group is joined. hPhe(3-Cl-4-CF3) = N[C@@H](CCc1ccc(C(F)(F)F)c(Cl)c1)C(=O)O; NPrPhe(4-CF3) = CCCN[C@@H](Cc1ccc(C(F)(F)F)cc1)C(=O)O; NMeGly(cPent) = CN[C@H](C(=O)O)C1CCCC1; Pro(4,4-F2) = O=C(O)[C@@H]1CC(F)(F)CN1; Pro(4,4-Me2) = CC1(C)CN[C@H](C(=O)O)C1; Pro(4S-Me) = C[C@@H]1CN[C@H](C(=O)O)C1; NMeD = CN[C@@H](CC(=O)O)C(=O)O; NMeL = CN[C@@H](CC(C)C)C(=O)O; Morpholide = C1CN(*)CCO1; Ac5c = NC1(C(=O)O)CCCC1; Aze = O=C(O)[C@@H]1CCN1; Ac4c = NC1(C(=O)O)CCC1; Sar = CNCC(=O)O

HRAS wild-type protein, sequence (P01112 whole entry): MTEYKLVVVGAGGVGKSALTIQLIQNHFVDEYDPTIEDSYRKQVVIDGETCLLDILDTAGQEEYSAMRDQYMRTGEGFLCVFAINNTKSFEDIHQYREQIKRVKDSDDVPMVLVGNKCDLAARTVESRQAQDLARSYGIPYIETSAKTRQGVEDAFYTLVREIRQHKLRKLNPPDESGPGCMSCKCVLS
GDP-bound KRAS wild-type protein, sequence (P01116 1-188 isoform P01116-2): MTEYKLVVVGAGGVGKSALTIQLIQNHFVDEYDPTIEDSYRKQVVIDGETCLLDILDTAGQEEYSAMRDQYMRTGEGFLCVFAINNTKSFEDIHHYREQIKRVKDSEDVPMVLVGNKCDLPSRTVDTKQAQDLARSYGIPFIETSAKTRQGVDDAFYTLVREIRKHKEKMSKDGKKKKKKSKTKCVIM

In general, Kd refers to the concentration at which binding is half-saturated. Low values mean higher affinity, high ones lower affinity. The term IC50 denotes the concentration needed to halve the response being measured. Low values mean greater potency in that assay, high ones weaker potency in that assay. The compound `CCCN1C(=O)CN(C)C(=O)[C@@H]2CCN2C(=O)[C@H]([C@@H](C)CC)NC(=O)[C@H](CC(C)C)N(C)C(=O)C[C@@H](C(=O)N(C)C)N(C)C(=O)[C@H](C2CCCC2)N(C)C(=O)C2(CCCC2)NC(=O)[C@@H]2CC(F)(F)CN2C(=O)[C@H](CCc2ccc(C(F)(F)F)c(Cl)c2)NC(=O)CN(C)C(=O)[C@@H]1Cc1ccc(C(F)(F)F)cc1` [PP0431] ([NMeL]I[Aze][Sar][NPrPhe(4-CF3)][Sar][hPhe(3-Cl-4-CF3)][Pro(4,4-F2)][Ac5c][NMeGly(cPent)][NMeD]-NMe2; lactam N-11) registered a Kd in experiment [1] of 0.35 nM. Further, the “NRAS /KRAS” value in experiment [2] was “B (a compound having 3 or more and less than 10 is denoted as B)”. In experiment [3], the “HRAS /KRAS” value was “C (A compound having a KD ratio of 0.1 or more and less than 3 is denoted as C)”. Also, in experiment [4], half-maximal inhibition (IC50) was put at 9.9 nM.

The compound `CCCN1C(=O)CN(C)C(=O)[C@@H]2CCN2C(=O)[C@H]([C@@H](C)CC)NC(=O)[C@H](CC(C)C)N(C)C(=O)C[C@@H](C(=O)N(C)C)N(C)C(=O)[C@H](C2CCCC2)N(C)C(=O)C2(CCC2)NC(=O)[C@@H]2CC(F)(F)CN2C(=O)[C@H](CCc2ccc(C(F)(F)F)c(Cl)c2)NC(=O)CN(C)C(=O)[C@@H]1Cc1ccc(C(F)(F)F)cc1` [PP0432] ([NMeL]I[Aze][Sar][NPrPhe(4-CF3)][Sar][hPhe(3-Cl-4-CF3)][Pro(4,4-F2)][Ac4c][NMeGly(cPent)][NMeD]-NMe2; lactam N-11) registered a Kd in experiment [1] of 0.17 nM. Besides, the “NRAS /KRAS” value in experiment [2] was “B (a compound having 3 or more and less than 10 is denoted as B)”. In experiment [3], the “HRAS /KRAS” value is “B (a compound having 3 or more and less than 10 is denoted as B)”. The same compound had an IC50 in experiment [4] of 10.7 nM.

Turning to `CCCN1C(=O)CN(C)C(=O)[C@@H]2CCN2C(=O)[C@H]([C@@H](C)CC)NC(=O)[C@H](CC(C)C)N(C)C(=O)C[C@@H](C(=O)N2CCOCC2)N(C)C(=O)[C@H](C2CCCC2)N(C)C(=O)C2(CCCC2)NC(=O)[C@@H]2CC(C)(C)CN2C(=O)[C@H](CCc2ccc(C(F)(F)F)c(Cl)c2)NC(=O)CN(C)C(=O)[C@@H]1Cc1ccc(C(F)(F)F)cc1` [PP0452] ([NMeL]I[Aze][Sar][NPrPhe(4-CF3)][Sar][hPhe(3-Cl-4-CF3)][Pro(4,4-Me2)][Ac5c][NMeGly(cPent)][NMeD]-Morpholide; lactam N-11), in experiment [1], the Kd came out at 0.73 nM. For the same compound, in experiment [2], the “NRAS /KRAS” value was “B (a compound having 3 or more and less than 10 is denoted as B)”. Further, the “HRAS /KRAS” value in experiment [3] is “B (a compound having 3 or more and less than 10 is denoted as B)”. Besides, in experiment [4], half-maximal inhibition (IC50) required 34.1 nM.

Consider `CCCN1C(=O)CN(C)C(=O)[C@@H]2CCN2C(=O)[C@H]([C@@H](C)CC)NC(=O)[C@H](CC(C)C)N(C)C(=O)C[C@@H](C(=O)N2CCOCC2)N(C)C(=O)[C@H](C2CCCC2)N(C)C(=O)C2(CCCC2)NC(=O)[C@@H]2C[C@H](C)CN2C(=O)[C@H](CCc2ccc(C(F)(F)F)c(Cl)c2)NC(=O)CN(C)C(=O)[C@@H]1Cc1ccc(C(F)(F)F)cc1` [PP0453] ([NMeL]I[Aze][Sar][NPrPhe(4-CF3)][Sar][hPhe(3-Cl-4-CF3)][Pro(4S-Me)][Ac5c][NMeGly(cPent)][NMeD]-Morpholide; lactam N-11), for which binding in experiment [1] was put at a Kd of 1.2 nM. Besides, the “NRAS /KRAS” value in experiment [2] was “B (a compound having 3 or more and less than 10 is denoted as B)”. For the same compound, the “HRAS /KRAS” value in experiment [3] was “C (A compound having a KD ratio of 0.1 or more and less than 3 is denoted as C)”. The compound also gave an IC50 in experiment [4] of 20.3 nM.

For the compound `CC[C@H](C)[C@@H]1NC(=O)[C@H](CC(C)C)N(C)C(=O)C[C@@H](C(=O)N2CCOCC2)N(C)C(=O)[C@H](C2CCCC2)N(C)C(=O)C2(CCCC2)NC(=O)[C@@H]2CCCN2C(=O)[C@H](CCc2ccc(C(F)(F)F)c(Cl)c2)NC(=O)CN(C)C(=O)[C@H](Cc2ccc(C)cc2)N2CC=CC[C@@H](C2=O)N(C)C(=O)CN(C)C1=O` [PP0460], the Kd in experiment [1] is 0.14 nM. In experiment [2], the “NRAS /KRAS” value is “C (A compound having a KD ratio of 0.1 or more and less than 3 is denoted as C)”. In experiment [3], the “HRAS /KRAS” value was “C (A compound having a KD ratio of 0.1 or more and less than 3 is denoted as C)”. For the same compound, in experiment [4], the IC50 worked out at 5.4 nM.
